In US10282514B2, “Method of constructing a data architecture” (The Procter & Gamble Company, priority 2012, dated 2019):

Tests used:
hyperpigmented spots = assay: 9-week randomized, double-blind, vehicle-controlled, split-face tone benefit study; type: in vivo, human; details: 0.05% in SC-99 vehicle, compared to vehicle
From the text: This Example provides evidence of the advantages of using composite signatures and illustrates clinical affirmation of the C-map model for predicting efficacy of skin-lightening agents. This Example supports embodiments related to composite signatures (as described at the end of Example 3). An illustrative “Skin Tone” Signature developed from a genomics study using a composite skin-lightening benchmark agent signature is derived from Niacinamide, Hexamidine, Sepiwhite, and NAG. The signature is used to query C-map and generate a list of potential skin-lightening agents. A top hit, Chlorhexidine Diactate (CD) is entered into clinical testing for confirmation of efficacy. The control for clinical efficacy is a 5% Niacinamide+1% Sepiwhite formulation in the control vehicle.
Primary endpoints are changes in color spot area fraction (image analysis) and melanin spot area fraction (NC2) from baseline. Secondary endpoints are changes from baseline in L*a*b (color image analysis), mean melanin gray scale (NC2), and melanin evenness (NC2). Texture area fraction and pore area fraction are also evaluated to explore impact on other aspects relating to overall skin tone. […] Statistically significant superiority to the high efficacy benchmark skin active agent to vehicle performance is the clinical success criteria.
Study Design: The experimental protocol included a 9-week (1-week preconditioning & 8-week treatment), randomized, double-blind, round robin, vehicle-controlled, split-face tone benefit study. The subject population included 330 Chinese females, 25-55 years old with hyperpigmented spots. 318 subjects completed the entire study. […] Olay Complete SPF 15 UV Moisturizing Lotion is concomitantly used during pre-conditioning and treatment. 0.5 g each test product per half-face (forehead to jaw line; ˜4 mg/cm^2) is dosed 2× a day (morning/evening). Color SAF and treatment area, Melanin SAF, gray scale, evenness by NC2, and additional measurement of Fine Lines and Wrinkle and Texture are by REAL 3.01A. Data collection points include baseline, and ends of weeks 4, 6 and 8. […]

[1] = tested on: tert-Keratinocyte (tKC) cell line; assay: C-map query with the tone composite benchmark signature; type: cell-based, human; details: composite signature of Niacinamide, Sepiwhite, NAG, Hexamidine
Description: (§1) Individual experiments (referred to as batches) generally comprise 30 to 96 samples analyzed using Affymetrix GeneChip® technology platforms, containing 6 replicates of the vehicle control (e.g., DSMO), 2 replicate samples of a positive control that gives a strong reproducible effect in the cell type used, and samples of the test material/perturbagen. Replication of the test material is done in separate batches due to batch effects. In vitro testing was performed in 6-well plates to provide sufficient RNA for GeneChip® analysis (2-4 μg total RNA yield/well).
Human telomerized keratinocytes (tKC) were obtained from the University of Texas, Southwestern Medical Center, Dallas, Tex. tKC cells were grown in EpiLife® media with 1× Human Keratinocyte Growth Supplement (Invitrogen, Carlsbad, Calif.) on collagen I coated cell culture flasks and plates (Becton Dickinson, Franklin Lakes, N.J.). Keratinocytes were seeded into 6-well plates at 20,000 cells/cm^2 24 hours before chemical exposure. Human skin fibroblasts (BJ cell line from ATCC, Manassas, Va.) were grown in Eagle's Minimal Essential Medium (ATCC) supplemented with 10% fetal bovine serum (HyClone, Logan, Utah) in normal cell culture flasks and plates (Corning, Lowell, Mass.). BJ fibroblasts were seeded into 6-well plates at 12,000 cells/cm^2 24 hours before chemical exposure. […]

[2] = tested on: teleomerized human keratinocytes (tKC); assay: C-map query with the Retinoic Acid/Keratinocyte 200 benchmark signature; type: cell-based; details: Retinoic Acid Keratinocyte RA_200 signature
Description: as §1
Human telomerized keratinocytes (tKC) were obtained from the University of Texas, Southwestern Medical Center, Dallas, Tex. tKC cells were grown in EpiLife® media with 1× Human Keratinocyte Growth Supplement (Invitrogen, Carlsbad, Calif.) on collagen I coated cell culture flasks and plates (Becton Dickinson, Franklin Lakes, N.J.). Keratinocytes were seeded into 6-well plates at 20,000 cells/cm^2 24 hours before chemical exposure. […]
(a) Tert-keratinocytes (tKC) RA Signatures. […] Cells were treated with 1 uM tRA for 6 hr, tested in triplicate, with triplicate DMSO controls, and analyzed on HG-U133A GeneChips. […]

Row | Structure (SMILES) | Basal skin tone (hyperpigmented spots; week 8) | NC2 Melanin evenness test (hyperpigmented spots; weeks 6 and 8) | spot area fraction color test (hyperpigmented spots; topical 2x a day, week 8) | connectivity to tone composite benchmark signature query [1] | average C-map score [2]
1 | CC(=O)O.CC(=O)O.NC(=N\CCCCCC/N=C(N)/N=C(\N)Nc1ccc(Cl)cc1)/N=C(\N)Nc1ccc(Cl)cc1 [CD, Chlorhexidine Diacetate] | superiority | superiority to the vehicle | significantly fewer spots | top connectivity hit | –
2 | CC1=C(/C=C/C(C)=C/C=C/C(C)=C/C(=O)O)C(C)(C)CCC1 [Retinoic acid, all-trans-retinoic acid] | – | – | – | – | highest score
